Assay results reported in patent publication US8609835B2, “Polysaccharide composition and methods of isolation of the emulsion stabilizing cationic polyelectrolytic polysaccharide” (Trustees Of Tufts College, priority 2008, dated 2013).

Assay: Aqueous solubility (statements)

In the case of “Acinetobacter polyelectrolyte exopolysaccharide [APE]”, the “solubility in aqueous solutions versus pH” value is reported as “soluble throughout the pH range”.
